In PMC12040169 (PLOS Biology, 2025):

Test: in vitro
Conditions: human, hela cells, % viability

Row | SMILES | viability at 28.5 h, 10 µM | viability at 28.5 h, 10 µM (bulk resorufin, single well)
1 | Cc1ccc(C(=O)NNC(=O)/C=C\C(=O)O)cc1 [CBK261842] | 86.9% | 
2 | O=C1OC(c2ccc(N3C(=O)c4cccc5cccc(c45)C3=O)cc2)(c2ccc(N3C(=O)c4cccc5cccc(c45)C3=O)cc2)c2ccccc21 [CBK261845] | 95.3% | 
3 | CN1CCN(c2ccc([N+](=O)[O-])c(NCCCO)c2)CC1 [CBK261846C] | 86.5% | 
4 | O=c1[nH]cc(COCc2ccccc2)c(=O)[nH]1 [CBK261847] | 94% | 
5 | COc1ccc(CN2CCC(N3CCCCC3)CC2)c(OC)c1 [CBK261848] | 103% | 
6 | COc1ccc(O)c(CN2CCC(N3CCCCC3)CC2)c1 [CBK261849] | 94.9% | 
7 | COc1cc(CN(C)Cc2cccc3ccccc23)c([N+](=O)[O-])cc1OC [CBK261850] | 89.3% | 
8 | COc1cc([N+](=O)[O-])cc(CN2CCN(CCO)CC2)c1O [CBK261851] | 92.4% | 
9 | O=[N+]([O-])c1ccccc1CN1CCC(N2CCCCC2)CC1 [CBK261852] | 88.7% | 
10 | COc1ccc(CN2CC=C(c3ccc(F)cc3)CC2)cc1OCc1ccccc1 [CBK261853] | 96.1% | 
11 | FC(F)(F)c1cccc(CN2CCC(N3CCCCC3)CC2)c1 [CBK261855] | 90.1% | 
12 | CN(C)CCN(C)Cc1ccc2c(c1)Cc1ccccc1-2 [CBK261856] | 93.3% | 
13 | CN(Cc1cccc(Oc2ccccc2)c1)Cc1cccc2ccccc12 [CBK261857] | 96.9% | 
14 | COc1cc(CN2CCC(N3CCCCC3)CC2)c([N+](=O)[O-])cc1OC [CBK261858] | 93.3% | 
15 | CN(C)CCN(C)Cc1ccc2ccc3cccc4ccc1c2c34 [CBK261860] | 103% | 
16 | CC1CCCN(Cc2ccccc2[N+](=O)[O-])C1 (centres unmarked) [CBK261862] | 102% | 
17 | O=[N+]([O-])c1ccccc1/C=C/CN1CCN(CCO)CC1 [CBK261863] | 85.8% | 
18 | c1ccc(COc2ccc(CN3CCN(c4ccccn4)CC3)cc2)cc1 [CBK261865] | 89.3% | 
19 | O=[N+]([O-])c1ccc(CN(CCc2ccccc2)Cc2ccccc2)cc1 [CBK261866] | 99.2% | 
20 | COc1cc(CN2CCN(c3cc(C)ccc3C)CC2)cc([N+](=O)[O-])c1O [CBK261868] | 95.5% | 
21 | CCOC(=O)CN(C)Cc1c[nH]c2ccccc12 [CBK261869] | 107% | 
22 | c1ccc(Oc2cccc(CN3CCOCC3)c2)cc1 [CBK261870] | 95.3% | 
23 | CC(CCN(C)CCN(C)C)c1ccccc1 (centres unmarked) [CBK261871] | 87.6% | 

Row | SMILES | viability at 28.5 h, 10 µM | viability at 28.5 h, 10 µM (bulk resorufin, single well)
24 | OCCN1CCN(CCCc2ccccc2)CC1 [CBK261872] | 86% | 
25 | OCCN(CCO)CC1CC2C=CC1C2 (centres unmarked) [CBK261874] | 105% | 
26 | CN(C)CCN(C)Cc1ccccc1O [CBK261875] | 103% | 
27 | CCN(CCN(C)C)Cc1ccc(F)cc1F [CBK261877] | 93.1% | 
28 | CN(Cc1ccccc1)Cc1ccccc1O [CBK261879] | 92.4% | 
29 | COc1cc(Br)cc(CN2CCN(Cc3ccccc3)CC2)c1O [CBK261880] |  | 108%
30 | OCCN(Cc1ccccc1)Cc1ccc(-c2ccccc2)cc1 [CBK261883] | 102% | 
31 | CCN(Cc1ccccc1)Cc1ccco1 [CBK261884] | 111% | 
32 | NC(=O)C1CCN(Cc2cc3c(cc2[N+](=O)[O-])OCO3)CC1 [CBK261885] | 91.7% | 
33 | OCCN(CCO)Cc1c(Cl)cccc1Cl [CBK261887] | 93% | 
34 | COc1ccc(CN2CCN(c3ccccn3)CC2)cc1OCc1ccccc1 [CBK261889] | 84.9% | 
35 | CCOC(=O)CN(C)Cc1ccccc1Br [CBK261891] | 108% | 
36 | C(=C\c1ccccc1)/CN1CCN(CCc2ccccc2)CC1 [CBK261893] | 93.4% | 
37 | O=[N+]([O-])c1ccc(N2CCN(C/C=C/c3ccccc3[N+](=O)[O-])CC2)cc1 [CBK261895] | 95% | 
38 | C(=C\c1ccccc1)/CN1CCN(CCCc2ccccc2)CC1 [CBK261897] | 90% | 
39 | COc1ccc2ccccc2c1CN1CCN(C/C=C/c2ccccc2)CC1 [CBK261899] | 108% | 
40 | CCn1c2ccccc2c2cc(CN(C)Cc3ccccc3)ccc21 [CBK261901] | 94.1% | 
41 | CN1CCC(N(C)C/C(Cl)=C/c2ccccc2)CC1 [CBK261903] | 92.1% | 
42 | COc1cc(CN2CCN(c3ccccn3)CC2)ccc1OCc1ccccc1 [CBK261906] | 88.8% | 
43 | C(=C\c1ccccc1)/CN1CCN(c2ncccn2)CC1 [CBK261909] | 92.3% | 
44 | CCN1CCN(Cc2ccc(OC)c(OCc3ccccc3)c2)CC1 [CBK261910] | 89.4% | 
45 | COc1cc(CN2CCC(C)CC2)c([N+](=O)[O-])cc1OC [CBK261911] | 90% | 
46 | COc1ccc(CN(C)CCN(C)C)c(O)c1 [CBK261915] | 114% | 

Row | SMILES | viability at 28.5 h, 10 µM | viability at 28.5 h, 10 µM (bulk resorufin, single well)
47 | CN(C1CCCCC1)C1CCN(CCc2ccccc2)CC1 [CBK261918] | 97.5% | 
48 | OCCN(CCO)Cc1ccc(Cl)c(Cl)c1 [CBK261919] | 88.1% | 
49 | COc1ccc(CCC(C)N2CCN(c3ccc(F)cc3)CC2)cc1 (centres unmarked) [CBK261922] | 103% | 
50 | CN(C)CC(C)(C)CNC1CCN(C)CC1 [CBK261926] | 95.2% | 
51 | CN(C)CCN(Cc1ccccc1)Cc1ccc(C(F)(F)F)cc1 [CBK261927] | 120% | 
52 | CN(C)CCN(Cc1ccccc1)Cc1ccc([N+](=O)[O-])cc1 [CBK261929] | 87.8% | 
53 | CSc1ccc(CN(CCO)CCO)cc1 [CBK261931] | 98.6% | 
54 | CCCN1CCC(NC(C)CCCC(C)(C)O)CC1 (centres unmarked) [CBK261932] | 99.3% | 
55 | CC(CCc1ccccc1)N(C)CCN(C)C (centres unmarked) [CBK261933] | 80.5% | 
56 | CCCN1CCC(NCC(C)(C)CN(C)C)CC1 [CBK261934] | 89.3% | 
57 | CCCN1CCC(N(C)CCN(CC)CC)CC1 [CBK261935] | 104% | 
58 | FC(F)(F)c1ccc2c(c1)N(CCCN1CCN(C34CC5CC(CC(C5)C3)C4)CC1)c1ccccc1S2 [CBK261938] | 102% | 
59 | O=C(O)CCCCCNS(=O)(=O)c1ccc(Cl)cc1 [CBK261940] | 81.4% | 
60 | CC1(C)CC(O[Si](C)(C)OC2CC(C)(C)NC(C)(C)C2)CC(C)(C)N1 [CBK261942] | 99.3% | 
61 | COc1ccc(C(=O)Nc2ccc3oc(-c4cccc(C)c4)nc3c2)cc1Br [CBK261944] | 100% | 
62 | Cc1cc(Cl)ccc1NC(=O)CCC(=O)N/N=C/c1cccnc1 [CBK261945] | 100% | 
63 | C/C(=N\NC(=O)CCC(=O)Nc1ccccc1C)c1ccc(O)cc1O [CBK261946] | 94.2% | 
64 | CCN(CC)Cc1c(O)ccc2occ(C(=O)c3cc(OC)ccc3OC)c12 [CBK261949] | 97% | 
65 | CC1(C)CC(=NNC(=O)CCc2cc(C(C)(C)C)c(O)c(C(C)(C)C)c2)CC(C)(C)N1 [CBK261952] | 108% | 
66 | C(#Cc1ccc(-c2nc(-c3ccc(Sc4ccccc4)cc3)c(-c3ccc(Sc4ccccc4)cc3)[nH]2)cc1)c1ccccc1 [CBK261954] | 95.3% | 
67 | O=C(N/N=C/c1cccc(Oc2ccccc2)c1)c1ccncc1 [CBK261955] | 95.6% | 
68 | CC1(C)CC(NC(=O)CN2CCCCC2)CC(C)(C)N1 [CBK261956] | 92.4% | 
